We go through 41 compounds from the Kinase Knowledgebase extract (Sharma et al. 2016).

By pIC50 is commonly meant the IC50 on a negative log10 scale, so that one unit is a factor of ten. High values mean a low IC50, low ones a high IC50.

In experiment [1] the target is EGFR (human) (UniProt P00533). To be noted: a431.
The target of experiment [2] is EGFR (human) (UniProt P00533).

pIC50: −log10 of the molar value.

EGFR (human), sequence (P00533 whole entry, looked up): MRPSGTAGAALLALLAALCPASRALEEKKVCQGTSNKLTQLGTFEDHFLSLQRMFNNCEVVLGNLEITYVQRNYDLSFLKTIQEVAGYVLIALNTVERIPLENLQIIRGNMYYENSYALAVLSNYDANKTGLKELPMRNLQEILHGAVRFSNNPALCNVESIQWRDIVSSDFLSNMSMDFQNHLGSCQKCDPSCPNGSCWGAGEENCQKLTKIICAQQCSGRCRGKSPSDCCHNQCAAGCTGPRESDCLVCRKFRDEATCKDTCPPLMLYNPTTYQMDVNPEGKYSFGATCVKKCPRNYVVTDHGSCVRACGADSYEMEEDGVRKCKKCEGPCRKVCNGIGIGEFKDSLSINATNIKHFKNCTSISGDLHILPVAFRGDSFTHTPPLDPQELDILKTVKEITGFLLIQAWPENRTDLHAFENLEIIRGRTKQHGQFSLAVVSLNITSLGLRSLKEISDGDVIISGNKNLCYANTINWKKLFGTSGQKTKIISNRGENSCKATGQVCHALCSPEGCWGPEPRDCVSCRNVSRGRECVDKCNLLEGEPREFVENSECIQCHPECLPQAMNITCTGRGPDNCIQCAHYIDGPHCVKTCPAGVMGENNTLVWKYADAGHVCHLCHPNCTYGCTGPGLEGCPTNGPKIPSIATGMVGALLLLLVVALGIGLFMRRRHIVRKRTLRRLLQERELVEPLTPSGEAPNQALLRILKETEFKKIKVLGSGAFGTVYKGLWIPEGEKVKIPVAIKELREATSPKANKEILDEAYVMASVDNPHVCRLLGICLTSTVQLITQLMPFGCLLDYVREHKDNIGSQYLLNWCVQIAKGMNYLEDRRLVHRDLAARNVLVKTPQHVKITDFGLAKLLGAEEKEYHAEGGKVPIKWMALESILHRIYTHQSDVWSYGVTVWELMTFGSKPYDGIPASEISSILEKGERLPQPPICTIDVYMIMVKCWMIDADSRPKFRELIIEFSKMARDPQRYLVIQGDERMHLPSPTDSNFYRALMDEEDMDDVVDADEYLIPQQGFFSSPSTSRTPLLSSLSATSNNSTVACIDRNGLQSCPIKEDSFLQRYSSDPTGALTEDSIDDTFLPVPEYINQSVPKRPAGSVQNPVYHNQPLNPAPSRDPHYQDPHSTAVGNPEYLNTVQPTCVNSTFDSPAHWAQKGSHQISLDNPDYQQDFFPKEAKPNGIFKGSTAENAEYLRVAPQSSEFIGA

Regarding `O=C(Cn1ccc(-c2ccc3ncnc(Nc4ccc(OCc5cccc(F)c5)c(Cl)c4)c3c2)c1)N1CCC(N2CCCC2)CC1`, the pIC50 is 6.62 against EGFR (human) [1] and 6.97 on EGFR (human) [2].
For `O=C(c1cn(-c2ccc3ncnc(Nc4ccc(OCc5cccc(F)c5)c(Cl)c4)c3c2)cc1CCO)N1CCCCC1`, in that order: 7.30 and 8.52.
For `CC(=O)NC1CCN(C(=O)Cn2ccc(-c3ccc4ncnc(Nc5ccc(OCc6cccc(F)c6)c(Cl)c5)c4c3)c2)CC1`, in that order: 6.02 and 6.99.
For `Fc1cccc(COc2ccc(Nc3ncnc4ccc(-c5ccc[nH]5)cc34)cc2Cl)c1`, in that order: 5.97 and 8.40.
Turning to `Fc1cccc(COc2ccc(Nc3ncnc4ccc(-c5ccn(CCNC6CC6)c5)cc34)cc2Cl)c1`, the pIC50 on EGFR (human) [1] is 6.13; against EGFR (human) [2] it was 6.62.
For `Fc1cccc(COc2ccc(Nc3ncnc4ccc(-c5ccn(CCN6CCCCCC6)c5)cc34)cc2Cl)c1`, in that order: 6.18 and 7.57.
For `CS(=O)(=O)CCNCc1cc(-c2ccc3ncnc(Nc4ccc(OCc5cccc(F)c5)c(Cl)c4)c3c2)c[nH]1`, in that order: 6.60 and 7.96.
With `Fc1cccc(COc2ccc(Nc3ncnc4ccc(-c5ccn(CCCN6CCN(c7cccc(Cl)c7)CC6)c5)cc34)cc2Cl)c1`, the values for the pIC50 on EGFR (human) [1] and on EGFR (human) [2] were 6.54 and 7.49, respectively.
For `O=C(NCC1CCS(=O)(=O)CC1)c1cc(-c2ccc3ncnc(Nc4ccc(OCc5cccc(F)c5)c(Cl)c4)c3c2)c[nH]1`, in that order: 6.15 and 6.94.
With `O=C(Cn1ccc(-c2ccc3ncnc(Nc4ccc(OCc5cccc(F)c5)c(Cl)c4)c3c2)c1)N1CCN(CCO)CC1`, the pIC50 on EGFR (human) [1] and on EGFR (human) [2] was 7.29 throughout.
`Fc1cccc(COc2ccc(Nc3ncnc4ccc(-c5cc(CNCCN6CCOCC6)c[nH]5)cc34)cc2Cl)c1`: the pIC50 was 6.62 on EGFR (human) [1] and 8.10 against EGFR (human) [2].
For `CN1CCN(C(=O)c2cn(-c3ccc4ncnc(Nc5ccc(OCc6ccccn6)c(Cl)c5)c4c3)cc2CCO)CC1`, the pIC50 is 6.89 at EGFR (human) [1] and 7.22 on EGFR (human) [2].
Take `CCN(CC)CC(O)Cn1ccc(-c2ccc3ncnc(Nc4ccc5c(cnn5Cc5cccc(F)c5)c4)c3c2)c1` (configuration not stated): the values for the pIC50 at EGFR (human) [1] and on EGFR (human) [2] were 6.92 and 7.70, respectively.
For the compound `O=C(C1CC1)N1CCN(CC(O)Cn2ccc(-c3ccc4ncnc(Nc5ccc(OCc6cccc(F)c6)c(Cl)c5)c4c3)c2)CC1` (configuration not stated), the pIC50 on EGFR (human) [1] was 5.96; on EGFR (human) [2] it was 6.71.
For `O=S1(=O)CCC(O)(CNCc2ccn(-c3ccc4ncnc(Nc5ccc(OCc6cccc(F)c6)c(Cl)c5)c4c3)c2)CC1`, in that order: 7.52 and 8.15.
For `O=C(c1cn(-c2ccc3ncnc(Nc4ccc(OCc5ccccn5)c(Cl)c4)c3c2)cc1CCO)N1CCOCC1`, the results for the pIC50 at EGFR (human) [1] and against EGFR (human) [2] were 7.30 and 7.31, respectively.
For `C[C@@H]1CN(C(=O)Cn2ccc(-c3ccc4ncnc(Nc5ccc(OCc6cccc(F)c6)c(Cl)c5)c4c3)c2)C[C@H](C)N1`, in that order: 6.11 and 7.92.
For the compound `CCN(CC)CCNCc1ccn(-c2ccc3ncnc(Nc4ccc(OCc5cccc(F)c5)c(Cl)c4)c3c2)c1`, the values for the negative-log IC50 (pIC50) on EGFR (human) [1] and against EGFR (human) [2] were 6.70 and 8.10, respectively.
On to `CNCCn1ccc(-c2ccc3ncnc(Nc4ccc(OCc5cccc(F)c5)c(Cl)c4)c3c2)c1`, for which the pIC50 against EGFR (human) [1] was 5.47; against EGFR (human) [2] it was 7.14.
For `Fc1cccc(Cn2ncc3cc(Nc4ncnc5ccc(-c6ccn(CC7CN(CCN8CCOCC8)CCO7)c6)cc45)ccc32)c1` (configuration not stated), in that order: 5.89 and 6.56.
As to `O=C(c1cn(-c2ccc3ncnc(Nc4ccc(OCc5cccc(F)c5)c(Cl)c4)c3c2)cc1CCO)N1CCOCC1`, the negative logarithm of the IC50 (pIC50) was 6.80 at EGFR (human) [1] and 8.10 against EGFR (human) [2].
For `CS(=O)(=O)CCNC1CCN(C[C@@H](O)Cn2ccc(-c3ccc4ncnc(Nc5ccc(OCc6cccc(F)c6)c(Cl)c5)c4c3)c2)CC1`, in that order: 5.44 and 7.96.
For `OCC(O)Cn1ccc(-c2ccc3ncnc(Nc4ccc(OCc5cccc(F)c5)c(Cl)c4)c3c2)c1` (configuration not stated), in that order: 5.86 and 7.57.
In the case of `Fc1ccc(Nc2ncnc3ccc(-n4cccc4)cc23)cc1Cl`, the pIC50 is 7.15 against EGFR (human) [1] and 7.21 against EGFR (human) [2].
With `OC(Cn1ccc(-c2ccc3ncnc(Nc4ccc5c(cnn5Cc5cccc(F)c5)c4)c3c2)c1)Cn1ccnn1` (configuration not stated), the pIC50 on EGFR (human) [1] is 6.40; at EGFR (human) [2], 7.24.
For `CS(=O)(=O)CCNCC(O)Cn1ccc(-c2ccc3ncnc(Nc4ccc5c(cnn5Cc5cccc(F)c5)c4)c3c2)c1` (configuration not stated), in that order: 6.37 and 9.00.
For `OCCc1cn(-c2ccc3ncnc(Nc4ccc(OCc5cccc(F)c5)c(Cl)c4)c3c2)cc1CN1CCCCC1`, in that order: 6.66 and 7.27.
For `CC(=O)NC1CCN(CC(O)Cn2ccc(-c3ccc4ncnc(Nc5ccc(OCc6cccc(F)c6)c(Cl)c5)c4c3)c2)CC1` (configuration not stated), in that order: 5.89 and 9.00.
For the compound `O[C@@H](CN1CCOCC1)Cn1ccc(-c2ccc3ncnc(Nc4ccc(OCc5cccc(F)c5)c(Cl)c4)c3c2)c1`, the negative-log IC50 (pIC50) at EGFR (human) [1] is 6.49; at EGFR (human) [2] it was 7.51.
For `O=C(Cn1ccc(-c2ccc3ncnc(Nc4ccc(OCc5cccc(F)c5)c(Cl)c4)c3c2)c1)N1CCC(N2CCCCC2)CC1`, in that order: 6.53 and 7.10.
For `Fc1cccc(COc2ccc(Nc3ncnc4ccc(-c5ccn(CCc6ccncc6)c5)cc34)cc2Cl)c1`, in that order: 6.06 and 6.78.
For `CN1CCN(CCNC(=O)c2cn(-c3ccc4ncnc(Nc5ccc(OCc6ccccn6)c(Cl)c5)c4c3)cc2CCO)CC1`, in that order: 6.92 and 6.97.
As to `O=C(NCCN1CCCC1)c1cn(-c2ccc3ncnc(Nc4ccc(OCc5cccc(F)c5)c(Cl)c4)c3c2)cc1CCO`, the results for the pIC50 on EGFR (human) [1] and against EGFR (human) [2] were 6.80 and 8.05, respectively.
For `CN(C)[C@@H]1CCN(C(=O)Cn2ccc(-c3ccc4ncnc(Nc5ccc(OCc6cccc(F)c6)c(Cl)c5)c4c3)c2)C1`, in that order: 5.59 and 6.88.
For `O=C(Cn1ccc(-c2ccc3ncnc(Nc4ccc(OCc5cccc(F)c5)c(Cl)c4)c3c2)c1)N1CCNCC1`, in that order: 6.18 and 7.39.
For `CCN(CC)CC(O)Cn1ccc(-c2ccc3ncnc(Nc4ccc(OCc5cccc(F)c5)c(Cl)c4)c3c2)c1` (configuration not stated), in that order: 6.46 and 7.64.
Regarding `Clc1cc(Nc2ncnc3ccc(-n4cccc4)cc23)ccc1OCc1ccccn1`, the pIC50 against EGFR (human) [1] is 8.00; at EGFR (human) [2], 8.22.
Turning to `Cc1ccc(Oc2ccc(Nc3ncnc4ccc(-c5cc[nH]c5)cc34)cc2C)cn1`, the pIC50 at EGFR (human) [1] is 7.05; on EGFR (human) [2] it was 6.41.
For `CS(=O)(=O)CCNCc1cn(-c2ccc3ncnc(Nc4ccc(OCc5cccc(F)c5)c(Cl)c4)c3c2)cc1C(F)(F)F`, in that order: 6.08 and 7.80.
For `OCCc1cn(-c2ccc3ncnc(Nc4ccc(OCc5cccc(F)c5)c(Cl)c4)c3c2)cc1CN1CCCC1`, in that order: 6.41 and 8.15.
For `Fc1cccc(COc2ccc(Nc3ncnc4ccc(-c5ccn(CCCN6CCOCC6)c5)cc34)cc2Cl)c1`, in that order: 5.86 and 7.41.
